Results: US20250236902A1 (priority 2022, published 2025)
Read-outs that look alike come from different tables or passages of the source.

Tests used:
H3N2 NA = assay type: biochemical, influenza H3N2
[1] = system: 3NACP (Clostridium perfringens NA); assay type: binding; details: 0.3 mU/mL 3NACP
[2] = system: 3NACP (Clostridium perfringens NA); assay type: biochemical; details: 3 mU/mL 3NACP; 1 μM inhibitor vs without

SMILES | inhibition effect on enzymatic response of AuE-H3 to H3N2 NA (normalized RCT) (H3N2 NA) | adsorption response of GCE-H3 to 3NACP (Normalized RCT) with inhibitor ([1]; 0.1 μM inhibitor, vs 0 μM) | adsorption response of GCE-H3 to 3NACP (Normalized RCT) with inhibitor ([1]; 1 μM inhibitor) | impedimetric response of AuE-H3 to 3NACP (1/Normalized RCT) with inhibitor [2]
CC(=O)N[C@H]1[C@H]([C@H](O)[C@H](O)CO)OC(C(=O)O)=C[C@@H]1N=C(N)N [Zanamivir] | strongest effect |  |  | 
CCC(CC)[C@H](NC(C)=O)[C@@H]1[C@H](O)[C@@H](C(=O)O)C[C@H]1N=C(N)N [Peramivir] | moderate inhibition effect |  |  | 
CCOC(=O)C1=C[C@@H](OC(CC)CC)[C@H](NC(C)=O)[C@@H](N)C1 [Oseltamivir] | weak inhibition effect | lower adsorption response | further decrease in response | decrease in response
